“Also recorded” adds a separate entry of the source.
Key:
Assay type in all cases: cell-based, human
[1] = tested on: MTTP^−/− organoids; test: anti-NAFLD drug screening, Nile Red lipid staining and lipid score; details: MTTP^−/− organoids exposed to drugs for 7 days
Procedure: (§1) Compound stocks of all drugs were made in DMSO, except for recombinant hFGF19 and hFGF21 which were reconstituted in AdvDMEM+++. Drugs were dissolved in HEP medium with a maximum final concentration of 0.2% DMSO. The drug panel, their targets, and concentrations tested are described in Table 2.
(§2) APOB^−/− and MTTP^−/− organoids were exposed to the drugs or vehicle in 24-well plates for 7 days with 2 medium changes. Wild type organoids were first made steatotic by pre-incubation with 500 μM FFAs (oleic acid and palmitic acid, 1:1 ratio) for 2 days. Then, FFA-loaded organoids were treated with the different drugs, still in the presence of FFA, for 7 days with 2 medium changes. All organoids were harvested for subsequent lipid staining and lipid scoring as described below. Drug effects were evaluated by observing the lipid droplet fluorescence characteristics within all organoids within the whole well. Quantitative analyses were performed in representative organoids (n≥3) per drug concentration per steatosis organoid model. Drug effects were validated in at least two independent experiments. For drug screening in PLIN2::tdTomato reporter organoids, the organoids were plated in 96-well black plates and treated with the indicated drugs. Pictures were taken over a 7-day time course using the EVOS FL Auto Imaging System. Images and fluorescence quantifications are representative of two independent experiments.
(§3) Organoids were carefully harvested in cold AdvDMEM+++ and washed once with cold AdvDMEM+++ using low-speed centrifugations. Organoids were fixed in 4% formaldehyde at RT for 30 min-1 hour. For lipid stainings, organoids were washed twice with PBS, and incubated with Nile Red (1 μg/μl) and DAPI (1 μg/μl) for 20 min at RT. Organoids were washed twice with PBS, and transferred in 100 μl PBS to a well of a 96-well black SensoPlate for imaging analysis. […] Organoids were washed once with 0.5% BSA-PBS and subsequently incubated with primary antibodies in 2.5% BSA-PBS O/N at 4° C. After 3 washes with 0.5% BSA-PBS, organoids were incubated with secondary antibodies in 2.5% BSA-PBS for 2-4 hours at RT. Organoids were washed once with 0.5% BSA-PBS, after which they were incubated with DAPI (1 μg/μl) in 0.5% BSA-PBS for 20 min at RT, and washed once more with 0.5% BSA-PBS. Organoids were then transferred in 100 μl 0.5% BSA-PBS to a well of a 96-well black SensoPlate.
(§4) Stained organoids were imaged on a Leica Sp8 confocal. Fluorescent images were processed using Photoshop CS4 or ImageJ software. The lipid score was calculated using Fiji software. The lipid score is defined by integrating the lipid droplet fluorescence and lipid droplet area coverage as follows: a fluorescence threshold derived from the lipid droplet signal is determined on Z-projected images to convert them into binary images. The region of interest (ROI) (organoid surface area) is defined based on fluorescence signal from the counterstained DAPI^+ nuclei. Then, particle measurement analysis is performed to define the fluorescence area covered within the defined ROI. The lipid score represents a normalized score of the resulting data on a linear 0 to 1 scale, where the mean calculated values from wild type organoids are arbitrarily set to 0, while the mean calculated values from either vehicle-treated APOB^−/− or MTTP^−/− organoids or vehicle-treated FFA-loaded organoids are set to 1, allowing scoring of drug effectiveness within these boundaries. Quantification of the amount of lipid droplets was performed manually by counting droplets within a given ROI (organoid surface area). The lipid droplet area coverage is determined identical to the lipid score without the final normalization steps.

[2] = tested on: APOB^−/− organoids; test: as above; details: APOB^−/− organoids exposed to drugs for 7 days
Procedure: as §1, §2, §3, §4

[3] = tested on: APOB^−/− organoids; test: bulk RNA-sequencing of drug-treated organoids
Procedure: Organoids from 1 well of a 12-well plate were harvested and washed in cold AdvDMEM+++. Organoid pellets were lysed in 1 ml TRIzol Reagent and subsequently snap-frozen in liquid nitrogen. RNA was extracted according to the manufacturer's protocol. RNA integrity was measured using the Agilent RNA 6000 Nano kit with the Agilent 2100 Bioanalyzer and RNA concentrations were determined using the Qubit RNA HS Assay Kit. RNA integrity number (RIN) values of RNA samples were typically 9.5-10 and never below 9.0. RNA libraries were prepared TruSeq Stranded mRNA polyA kit and single-end (1×75 bp) sequenced on an Illumina Nextseq 2000 or Nextseq 500. Reads were mapped to the human GRCh38 genome assembly. Differential gene expression analysis was performed using the DESeq2 package (Love et al., 2014) in RStudio. Considered log 2 fold changes and significance (p-values) are indicated throughout the paper. Data visualization was obtained using the ggplot2, ComplexHeatmap, and EnhancedVolcano packages in RStudio or manually plotted using GraphPad Prism 8.

[4] = tested on: PLIN2::tdTomato; MTTP^−/− reporter organoids; test: drug screening in PLIN2 reporter organoids, fluorescence read-out; details: PLIN2-tagged reporter organoids, ACCi or vehicle for 5 days
From the text: PLIN2 reporter lines in the background of APOB^−/− or MTTP^−/− organoids were generated using CRISPR-HOT as described previously (Artegiani et al., 2020; Hendriks et al., 2021). Briefly, the transfection mixture consisted of a sgRNA targeting the C-terminus of PLIN2, a plasmid providing both Cas9 and a non-human sgRNA targeting the donor plasmid (Addgene #66940), and a donor plasmid encoding either tdTomato (Addgene #138567) or mNeon (a gift from V. Hornung). Upon transfection, the sgRNA targeting the donor plasmid linearizes the donor plasmid to facilitate NHEJ-mediated in-frame gene knock-in of the fluorescent tag into the PLIN2 C-terminus. Upon outgrowth of transfected organoids, fluorescent organoids became apparent. A bulk PLIN2-tagged fluorescence-pure culture was established by sorting single fluorescence-positive cells by FACS. Genotyping was performed to confirm precise gene knock-in.
APOB^−/− and MTTP^−/− organoids were exposed to the drugs or vehicle in 24-well plates for 7 days with 2 medium changes. […] Drug effects were evaluated by observing the lipid droplet fluorescence characteristics within all organoids within the whole well. Quantitative analyses were performed in representative organoids (n≥3) per drug concentration per steatosis organoid model. […] Images and fluorescence quantifications are representative of two independent experiments.

[5] = tested on: FFA-loaded wild type organoids; test: anti-NAFLD drug screening, Nile Red lipid staining and lipid score; details: wild type organoids pre-incubated with 500 μM FFAs 2 days, then drugs 7 days in presence of FFA
Procedure: Wild type human hepatocyte organoids were made steatotic by providing a concentrated mixture of exogenous FFAs (oleic acid (18:1) and palmitic acid (16:0), ratio 1:1) in the culture medium. The FFAs were dissolved in ethanol and thereafter conjugated to bovine serum albumin. Prior to fat loading, organoids were plated into small BME droplets (15 μl/drop) to facilitate FFA penetration. Total concentrations of FFA were 640 μM for transcriptomic analyses to mimic the level of steatosis observed in APOB^−/− or MTTP^−/− organoids.
as §1
as §2, with “experiments. […]” for “experiments. For drug screening in PLIN2::tdTomato reporter organoids, the organoids were plated in 96-well black plates and treated with the indicated drugs. Pictures were taken over a 7-day time course using the EVOS FL Auto Imaging System.”, “experiments. […]” for “experiments.”
as §4, with “Fluorescent images were processed using Photoshop CS4 or ImageJ software.” left out, “Quantification of the amount of lipid droplets was performed manually by counting droplets within a given ROI (organoid surface area). The lipid droplet area coverage is determined identical to the lipid score without the final normalization steps.” left out

COc1ccccc1[C@H](Cn1c(=O)n(C(C)(C)C(=O)O)c(=O)c2c(C)c(-c3ncco3)sc21)OC1CCOCC1 [ACCi, Firsocostat]
steatosis phenotype (lipid staining, lipid score) [1]: Effective
steatosis phenotype (lipid staining, lipid score) [2]: Effective
expression of genes important for cell proliferation and DNA synthesis [3]: downregulation
expression of key genes involved in glycolysis (ALDOB, HK2, ENO2, PFKFB3/4) [3]: downregulated
expression of lipogenic genes (ACACA, FASN, SREBF1, etc.) [3]: increased expression
endogenous fluorescent signal of PLIN2 reporter [4]: reduced the endogenous fluorescent signal
steatosis phenotype (lipid staining, lipid score) [5]: Effective

CS(=O)(=O)O.O=C([C@@H]1CCCN(c2ccc3[nH]c(C4(n5cc(Cl)cn5)CC4)nc3n2)C1)N1CCCC1 [DGAT2i, PF06424439]
steatosis phenotype (lipid staining, lipid score) [1]: Effective
steatosis phenotype (lipid staining, lipid score) [2]: Effective
transcriptomic changes versus vehicle-treated organoids [3]: transcriptomically identical to vehicle-treated organoids; also recorded: very few transcriptomic changes
steatosis phenotype (lipid staining, lipid score) [5]: Effective

O=C(Nc1ccc2[nH]nc(-c3ccncc3)c2c1)[C@@H]1CCN(CC(=O)N2CCN(c3ccc(-c4ncccn4)cc3)CC2)C1 [ERKi, SCH772984]
steatosis phenotype (lipid staining, lipid score) [1]: did not alter the steatosis phenotype
steatosis phenotype (lipid staining, lipid score) [2]: did not alter the steatosis phenotype

Cc1nnc(-c2cc(C(=O)N3CCC(c4ccc(C#N)cc4)CC3)c(C)cc2C2CCC2)[nH]1 [FASi, TVB2640]
steatosis phenotype (lipid staining, lipid score) [1]: Effective
steatosis phenotype (lipid staining, lipid score) [2]: Effective
expression of genes important for cell proliferation and DNA synthesis [3]: downregulation
expression of key genes involved in glycolysis (ALDOB, HK2, ENO2, PFKFB3/4) [3]: downregulated
expression of lipogenic genes (ACACA, FASN, SREBF1, etc.) [3]: increased expression
steatosis phenotype (lipid staining, lipid score) [5]: Effective

O=C(O)c1ccnc(N2CC(O)(c3ccc(OCc4c(-c5c(Cl)cccc5Cl)noc4C4CC4)cc3Cl)C2)c1 [FXRa, Cilofexor]
FGF19 expression [3]: strongly upregulated
expression of FXR target genes CYP7A1 and CYP27A1 [3]: downregulation
expression of NR0B2 (SHP) [3]: induction
expression of de novo lipogenesis-related genes, including DGAT2, ACSS2, and GPAM [3]: repress
expression of key hepatocyte markers (ALB, TTR) [3]: downregulation
expression of transporters such as BSEP (ABCB11) [3]: induction
genes of TGFβ regulation of extracellular matrix [3]: gene induction patterns suggestive of TGFβ-related extracellular matrix remodeling

Oc1ccc(-c2nc(-c3ccncc3)c(-c3ccc(F)cc3)[nH]2)cc1 [p38i, SB202190]
steatosis phenotype (lipid staining, lipid score) [1]: reduced the steatosis phenotype
steatosis phenotype (lipid staining, lipid score) [2]: reduced the steatosis phenotype

hFGF19: recombinant human FGF19, activates β-Klotho/FGFRs
steatosis phenotype (lipid staining, lipid score) [1]: marked steatosis-reducing effects
steatosis phenotype (lipid staining, lipid score) [2]: marked steatosis-reducing effects
expression of FXR target genes CYP7A1 and CYP27A1 [3]: downregulation
expression of NR0B2 (SHP) [3]: induction
expression of de novo lipogenesis-related genes, including DGAT2, ACSS2, and GPAM [3]: repress
expression of key hepatocyte markers (ALB, TTR) [3]: downregulation
genes of TGFβ regulation of extracellular matrix [3]: gene induction patterns suggestive of TGFβ-related extracellular matrix remodeling
steatosis phenotype (lipid staining, lipid score) [5]: marked steatosis-reducing effects
